Data published in the supplement of paper PMC11061612.

How the values were obtained:
[1] = compound: C1CN(CCC1(C(=O)N[C@@H](CCO)C2=CC=C(C=C2)Cl)N)C3=NC=NC4=C3C=CN4 [Capivasertib]; details: max 10 µM
Outline: (§1)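 Cancer cell lines in 1536-well plates (7.5 μl DMEM/F12 or RPMI, 10% FBS) were held 24 hours at 37°C and 5% CO2 and then dosed for 72 hours at a final DMSO of typically 0.2%. Viability was taken from CellTiter-Glo 2.0 luminescence, scaled between blank-well and DMSO-well means. Curves were fitted as two-parameter logistic models with a non-linear mixed effects model, from which the single-agent IC50 was taken.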

[2] = compound: C=CCn1c(=O)c2cnc(Nc3ccc(N4CCN(C)CC4)cc3)nc2n1-c1cccc(C(C)(C)O)n1 [AZD1775]; details: max 3 µM
Outline: as §1

[3] = compound: CC(=O)Nc1cccc(-n2c(=O)n(C3CC3)c(=O)c3c(Nc4ccc(I)cc4F)n(C)c(=O)c(C)c32)c1 [Trametinib]; details: max 1 µM
Outline: as §1

[4] = compound: CC(=O)c1c(C)c2cnc(Nc3ccc(N4CCNCC4)cn3)nc2n(C2CCCC2)c1=O [Palbociclib]; details: max 10 µM
Outline: as §1

[5] = compound: CC(C)n1c(=O)n(C)c2cnc3cc(F)c(-c4ccc(OCCCN5CCCCC5)nc4)cc3c21 [AZD1390]; details: max 0.3 µM
Outline: as §1

[6] = compound: CC1(C)CCC(CN2CCN(c3ccc(C(=O)NS(=O)(=O)c4ccc(NCC5CCOCC5)c([N+](=O)[O-])c4)c(Oc4cnc5[nH]ccc5c4)c3)CC2)=C(c2ccc(Cl)cc2)C1 [Venetoclax]; details: max 1 µM
Outline: as §1

[7] = compound: CC1=C(C(=CC=C1)Cl)NC(=O)C2=CN=C(S2)NC3=CC(=NC(=N3)C)N4CCN(CC4)CCO [Dasatinib]; details: max 2 µM
Outline: as §1

[8] = compound: CC1=CN2[C@@H](C1)C=NC3=CC(=C(C=C3C2=O)OC)OCCCCCOC4=C(C=C5C(=C4)N=C[C@@H]6CC(=CN6C5=O)C)OC [SG3199]; details: max 0.001 µM
Outline: as §1

[9] = compound: CCN(CCO)CCCOc1ccc2c(Nc3cc(CC(=O)Nc4cccc(F)c4)[nH]n3)ncnc2c1 [AZD2811]; details: max 1 µM
Outline: as §1

[10] = compound: CCc1c2c(nc3ccc(O)cc13)-c1cc3c(c(=O)n1C2)COC(=O)[C@]3(O)CC [SN-38]; details: max 0.3 µM
Outline: as §1

[11] = compound: CN(C)CCCOc1ccc(-c2ccc3ncc4c(c3c2)n(C2CCOCC2)c(=O)n4C)cn1 [AZD0156]; details: max 3 µM
Outline: as §1

[12] = compound: CN(CC[C@H](CSC1=CC=CC=C1)NC2=C(C=C(C=C2)S(=O)(=O)NC(=O)C3=CC=C(C=C3)N4CCC(CC4)[C@H](C5=CC=CC=C5C6=CC=C(C=C6)Cl)O)S(=O)(=O)C(F)(F)F)CCO [AZD4320]; details: max 1 µM
Outline: as §1

[13] = compound: COc1cc(Nc2ncc3c(n2)-c2ccc(Cl)cc2C(c2c(F)cccc2OC)=NC3)ccc1C(=O)O [Alisertib]; details: max 10 µM
Outline: as §1

[14] = compound: COc1cc2ncnc(Nc3ccc(F)c(Cl)c3)c2cc1OCCCN1CCOCC1 [Gefitinib]; details: max 10 µM
Outline: as §1

[15] = compound: COc1cccc(OCCCN)c1-c1cc(Nc2cnc(C#N)cn2)n[nH]1 [Prexasertib]; details: max 1 µM
Outline: as §1

[16] = compound: COc1cccc2c1C(=O)c1c(O)c3c(c(O)c1C2=O)C[C@@](O)(C(=O)CO)C[C@@H]3O[C@H]1C[C@H](N)[C@H](O)[C@H](C)O1 [Doxorubicin]; details: max 1 µM
Outline: as §1

[17] = compound: COc1nnc2ccc(N3CCC(c4ccc(OCCN5CCN(C)C(=O)[C@H]5C)cc4)CC3)nn12 [AZD5153]; details: max 1 µM
Outline: as §1

[18] = compound: CS(=O)(=O)CCNCc1ccc(-c2ccc3ncnc(Nc4ccc(OCc5cccc(F)c5)c(Cl)c4)c3c2)o1 [Lapatinib]; details: max 10 µM
Outline: as §1

[19] = compound: C[C@@H](Nc1cc(F)cc(F)c1)c1cc(C(=O)N(C)C)cc2c(=O)cc(N3CCOCC3)oc12 [AZD8186]; details: max 3 µM
Outline: as §1

[20] = compound: C[C@@H](Oc1cc(-c2cnn(C3CCNCC3)c2)cnc1N)c1c(Cl)ccc(F)c1Cl [Crizotinib]; details: max 10 µM
Outline: as §1

[21] = compound: C[C@@H](c1ccc2nccn2c1)n1nnc2ncc(-c3cnn(C)c3)nc21 [Savolitinib]; details: max 1 µM
Outline: as §1

[22] = compound: C[C@@H]1COCCN1C2=NC(=NC(=C2)C3(CC3)[S@](=N)(=O)C)C4=C5C=CNC5=NC=C4 [AZD6738]; details: max 10 µM
Outline: as §1

[23] = compound: Cc1c2c(nn1C)CSCc1cc(n(C)n1)CSc1cc(c3ccccc3c1)OCCCc1c(C(=O)O)n(C)c3c-2c(Cl)ccc13 [AZD5991]; details: max 1 µM
Outline: as §1

[24] = compound: Cc1cc2ncnn2cc1Nc1ncc2c(n1)n(C1CCOCC1)c(=O)n2C [AZD7648]; details: max 10 µM
Outline: as §1

[25] = compound: Cc1nc(-c2cn3c(n2)-c2ccc(-c4cnn(C(C)(C)C(N)=O)c4)cc2OCC3)n(C(C)C)n1 [Taselisib]; details: max 10 µM
Outline: as §1

[26] = compound: Cn1cnc2c(F)c(Nc3ccc(Br)cc3Cl)c(C(=O)NOCCO)cc21 [Selumetinib]; details: max 10 µM
Outline: as §1

[27] = compound: O=C(c1cc(Cc2n[nH]c(=O)c3ccccc23)ccc1F)N1CCN(C(=O)C2CC2)CC1 [Olaparib]; details: max 10 µM
Outline: as §1

Cell Line	IC50, cell viability 72 h [1] [nM]	IC50, cell viability 72 h [2] [nM]	IC50, cell viability 72 h [3] [nM]	IC50, cell viability 72 h [4] [nM]	IC50, cell viability 72 h [5] [nM]	IC50, cell viability 72 h [6] [nM]	IC50, cell viability 72 h [7] [nM]	IC50, cell viability 72 h [8] [nM]	IC50, cell viability 72 h [9] [nM]	IC50, cell viability 72 h [10] [nM]	IC50, cell viability 72 h [11] [nM]	IC50, cell viability 72 h [12] [nM]	IC50, cell viability 72 h [13] [nM]	IC50, cell viability 72 h [14] [nM]	IC50, cell viability 72 h [15] [nM]	IC50, cell viability 72 h [16] [nM]	IC50, cell viability 72 h [17] [nM]	IC50, cell viability 72 h [18] [nM]	IC50, cell viability 72 h [19] [nM]	IC50, cell viability 72 h [20] [nM]	IC50, cell viability 72 h [21] [nM]	IC50, cell viability 72 h [22] [nM]	IC50, cell viability 72 h [23] [nM]	IC50, cell viability 72 h [24] [nM]	IC50, cell viability 72 h [25] [nM]	IC50, cell viability 72 h [26] [nM]	IC50, cell viability 72 h [27] [nM]
OS-RC-2 (Kidney Carcinoma)	> 10000	> 3000	> 1000	> 10000	> 300	> 1000	> 2000	> 1	> 1000	> 300	> 3000	> 1000	> 10000	> 10000	433	> 1000	> 1000	> 10000	1910	> 10000	> 1000	> 10000	> 1000	> 10000	> 10000	> 10000	> 10000
PA-1 (Ovarian Carcinoma)	941	543	869	1620	> 300	> 1000	30.2	> 1	> 1000	19.6	> 3000	> 1000	238	> 10000	187	209	41.1	5150	1060	3090	> 1000	3170	80.7	> 10000	248	> 10000	> 10000
SISO (Cervical Carcinoma)	> 10000	1530	> 1000	> 10000	> 300	> 1000	> 2000	> 1	> 1000	23.6	> 3000	> 1000	6210	> 10000	237	290	> 1000	> 10000	> 3000	> 10000	> 1000	> 10000	> 1000	> 10000	> 10000	> 10000	> 10000
SK-MES-1 (Squamous Cell Lung Carcinoma)	> 10000	1360	178	> 10000	> 300	> 1000	> 2000	> 1	> 1000	30.5	> 3000	> 1000	> 10000	> 10000	60.5	> 1000	> 1000	6630	> 3000	> 10000	> 1000	8000	> 1000	> 10000	4880	> 10000	> 10000
SK-MG-1 (Low Grade Glioma)	> 10000	> 3000	> 1000	> 10000	> 300	> 1000	886	> 1	> 1000	60	> 3000	> 1000	> 10000	> 10000	82.8	> 1000	> 1000	> 10000	2730	> 10000	> 1000	> 10000	> 1000	> 10000	1620	> 10000	> 10000
TT2609-C02 (Thyroid Gland Carcinoma)	> 10000	> 3000	280	> 10000	> 300	> 1000	> 2000	> 1	> 1000	69	> 3000	> 1000	> 10000	> 10000	> 1000	> 1000	> 1000	> 10000	> 3000	> 10000	> 1000	> 10000	> 1000	> 10000	> 10000	6350	> 10000
